The source made the active and inactive calls. The calls are words filed in the database; no cut-off is given here.
What was measured:
[1] = tested on: Frankliniella occidentalis; assay: Insecticidal activity against Frankliniella occidentalis (western flower thrips) assessed as mortality at 1 ul/45mL; type: functional
Aspergillus flavus [2] = assay: Antifungal activity against Aspergillus flavus assessed as inhibition of mycelial growth measured after 72 hr at 0.8 mg/mL at 28 +/- 1 degC; type: functional, organism-based
Aspergillus flavus [3] = assay: Antifungal activity against Aspergillus flavus assessed as inhibition of mycelial growth measured after 72 hr at 28 +/- 1 degC; type: functional, organism-based

SMILES | mortality [1] [%] | inhibition (Aspergillus flavus [2]) | inhibition (Aspergillus flavus [3])
CC(C)=C1CC[C@@H](C)CC1=O [PULEGONE] | 100 | Active | –
CC(C)[C@H]1CC[C@H](C)CC1=O (relative stereo) | – | – | inactive
CC(C)[C@H]1CC[C@@H](C)CC1=O (relative stereo) | – | – | inactive

From ChEMBL document CHEMBL3046294, “Fungicidal properties of the essential oil of Hesperozygis marifolia on Aspergillus flavus link” (2011)
